Data taken from publication PMC4528135, “Kinetic Investigations of the Role of Factor Inhibiting Hypoxia-inducible Factor (FIH) as an Oxygen Sensor” (The Journal of Biological Chemistry, 2015).
Where two headings read alike, the source gives them in different places.

Key:
FIH = target: T1, FIH (Homo sapiens, UniProt Q9NWT6); assay: Time course of FIH-catalyzed peptide hydroxylation; assay type: biochemical; details: 5 μM FIH, 500 μM peptide, atmospheric O2; for substrate hydroxylation (time course): 50 μM Fe(II), 500 μM 2OG, 1 mM L-ascorbate, 50 mM HEPES pH 7.5, 37 °C, MALDI-TOF-MS, triplicate assays
T1 construct: Full-length recombinant FIH, two- and three-consensus ankyrin repeats (2CA and 3CA) were produced as described; His6 (cleaved yes); made in house; host or cells: Escherichia coli BL21(DE3)
Experimental: (§1) Enzymatic assays were conducted as described ([46], [47]). Unless otherwise stated, the assay mixture typically contained 5 μM FIH, 500 μM substrate, 500 μM 2OG, 1 mM L-ascorbate, and 50 μM Fe(NH4)2(SO4)2 or 4 μM PHD2, 100 μM substrate, 300 μM 2OG, 4 mM L-ascorbate, and 50 μM Fe(NH4)2(SO4)2. For HIF-1α CODD19-mer, the background levels of methionine oxidation resulting from assay conditions were subtracted based on non-enzymatic controls ([48]).
(§2) FIGURE 3. PHD2- and FIH-catalyzed hydroxylation of HIF-1/2α peptide substrates. A, time course of HIF-1/2α CODD19-mer peptide hydroxylation; B, time course of HIF-1/2α NODD19-mer peptide hydroxylation. Conditions were as follows: 4 μM PHD2, 100 μM peptide, 50 μM Fe(II), 300 μM 2OG, 1 mM L-ascorbate in HEPES 50 mM (pH 7.5) were incubated at 37 °C at atmospheric O2. C, time course of HIF-1α CAD 19- and 35-mer peptide hydroxylation. D, time course of HIF-2α CAD 19- and 35-mer peptide hydroxylation. Conditions were as follows: 5 μM FIH, 500 μM peptide, 50 μM Fe(II), 500 μM 2OG, 1 mM L-ascorbate in HEPES 50 mM (pH 7.5) were incubated at 37 °C at atmospheric O2. The different hydroxylation levels were analyzed by MALDI-TOF-MS. Error bars, S.D. of triplicate assays.

[1] = target: T2, PHD2 (catalytic domain, residues 181–426) (Homo sapiens, UniProt Q9GZT9); assay: Steady-state kinetics of PHD2-catalyzed HIF-α CODD/NODD hydroxylation (MALDI-TOF-MS); assay type: biochemical; details: 4 mM L-ascorbate, 50 mM HEPES pH 7.5, 37 °C; for kcat^app: PHD2, 4 μM PHD2, 50 μM Fe(II); for Km: 50 μM Fe(II), triplicate assays
T2 construct: The catalytic domain of PHD2 (residues 181–426) was purified as described; made in house
Experimental: as §1
(§3) The O2 dependence of FIH-catalyzed reactions was determined by conducting enzymatic assays in an “In vivo 500 Hypoxia Workstation” (Ruskinn) using buffers pre-equilibrated under different pO2 values for 24 h. The O2 dependence of PHD2-catalyzed reactions was determined by conducting enzymatic assays in sealed glass vials with variable N2/O2 contents ([42]). Reactions were stopped by spotting samples onto a matrix-assisted laser desorption/ionization-time of flight mass spectrometry (MALDI-TOF-MS) target plate and immediately mixing with α-cyano-4-hydroxycinnamic acid matrix. Hydroxylation levels were assessed by MALDI-TOF-MS as described ([46]).

PHD2 [2] = target: T3, PHD2 (Homo sapiens, UniProt Q9GZT9); assay: O2 dependence of PHD2-catalyzed hydroxylation (sealed vials, N2/O2 mixes); assay type: biochemical; details: PHD2 with the named 19-mer substrate; 4 μM PHD2, 50 μM Fe(II), 4 mM L-ascorbate, 50 mM HEPES pH 7.5, 37 °C, O2 levels set by mass flow controllers; triplicate assays; read-out: Km^app(O2)
T3 construct: The catalytic domain of PHD2 (residues 181–426) was purified as described; made in house
Experimental: as §3
FIGURE 4. O2 dependence of FIH- and PHD2-catalyzed hydroxylation of HIF-1/2α. A, O2 dependence of PHD2-catalyzed hydroxylation of HIF-1/2α CODD/NODD 19-mer peptides. 4 μM PHD2, peptide (varied), 50 μM Fe(II), 2OG (varied), 4 mM L-ascorbate in HEPES 50 mM (pH 7.5) were incubated at 37 °C. The different O2 levels were maintained using mass flow controllers ([42]), and the hydroxylation levels were analyzed by MALDI-TOF-MS. B, O2 dependence of FIH-catalyzed hydroxylation of CAD HIF-1/2α 35-mer peptides. Conditions were as follows. 5 μM FIH, 500 μM peptide, 50 μM Fe(II), 1 mM 2OG, 1 mM L-ascorbate in HEPES 50 mM (pH 7.5) were incubated at 37 °C in a hypoxia work station under different pO2. […] Error bars, S.D. of triplicate assays.

PHD2 [3] = target: T3, PHD2; assay: Time course of PHD2-catalyzed peptide hydroxylation; assay type: biochemical; details: 4 μM PHD2, 100 μM peptide, 50 μM Fe(II), 300 μM 2OG, 1 mM L-ascorbate, 50 mM HEPES pH 7.5, 37 °C, atmospheric O2; MALDI-TOF-MS; triplicate assays
Experimental: as §1, §2

[4] = CD spectroscopy and thermal denaturation of 2CA and 3CA; assay type: physicochemical; details: for secondary structure in solution by circular dichroism: 0.2 mg/ml protein in 10 mM sodium phosphate buffer pH 8.0 (Fig. 7), thermal denaturation 10 to 90 °C
Experimental: CD spectra were recorded using a Chirascan CD/fluorimeter (Applied Photophysics) spectrometer. Measurements were carried out at 20 °C in a 0.1 cm path length quartz cuvette, with protein concentration of 0.125 mg/ml in 5 mM sodium phosphate buffer (pH 8.0). Spectra were recorded in the wavelength range of 260–190 nm at 0.5-nm intervals, and each spectrum represents an average of three scans. Spectra were baseline-corrected by subtraction of the buffer spectrum. Data were expressed as the mean residue ellipticity ([θ], degrees·cm^2·dmol^−1). Thermal denaturation experiments were performed under the same conditions. The ellipticity at 220 nm (θ220) was monitored from 10 to 90 °C.
FIGURE 7. CD spectroscopic comparison of 2CA and 3CA secondary structure. Thermal denaturation experiments of 2CA and 3CA are shown. Conditions were as follows. 0.2 mg/ml protein in 10 mM sodium phosphate buffer (pH 8.0) was studied at 222 nm for thermal denaturation experiments between 10 and 90 °C. A, melting curves of 2CA. B, spectra of 2CA between 260 and 190 nm at 10 °C, after heating to 90 °C and after cooling again to 10 °C. C, melting curves of 3CA. D, spectra of 3CA between 260 and 190 nm at 10 °C, after heating to 90 °C, where the α-helical structure is predominantly lost, and after cooling again to 10 °C, where the structure is largely regained.

[5] = PHD2, 4 μM PHD2, peptide varied, 300 μM 2OG, read-out: Km^app(peptide)
[6] = PHD2 with the named substrate, 4 μM PHD2, 2OG varied, read-out: Km^app(2OG)

T1 sequence (Q9NWT6 whole entry): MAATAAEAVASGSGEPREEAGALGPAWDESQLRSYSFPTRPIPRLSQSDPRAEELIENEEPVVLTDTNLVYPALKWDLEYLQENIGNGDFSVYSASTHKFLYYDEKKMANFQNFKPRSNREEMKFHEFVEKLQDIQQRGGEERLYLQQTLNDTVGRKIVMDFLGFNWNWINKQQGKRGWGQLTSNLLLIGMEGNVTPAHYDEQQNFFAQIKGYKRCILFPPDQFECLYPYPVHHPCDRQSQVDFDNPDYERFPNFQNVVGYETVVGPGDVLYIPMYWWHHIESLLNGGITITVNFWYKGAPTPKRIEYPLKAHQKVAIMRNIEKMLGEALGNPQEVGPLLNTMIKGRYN
T3 sequence (Q9GZT9 181-426): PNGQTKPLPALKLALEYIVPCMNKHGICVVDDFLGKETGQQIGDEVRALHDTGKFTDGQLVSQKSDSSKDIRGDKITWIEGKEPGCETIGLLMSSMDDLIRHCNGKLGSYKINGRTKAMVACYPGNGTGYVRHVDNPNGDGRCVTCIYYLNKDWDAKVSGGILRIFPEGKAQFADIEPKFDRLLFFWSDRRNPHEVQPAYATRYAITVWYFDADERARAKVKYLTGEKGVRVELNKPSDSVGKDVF
T2 sequence (Q9GZT9 181-426): as above

Q: For “DESGLPQLTSYDCEVNAPIQGSRNLLQGEELLRAL [HIF-1α CAD35-mer]”, which “substrate hydroxylation (time course)” value (FIH) is on record?
A: Its value is “nearly complete substrate hydroxylation”.

Q: Which “kcat^app” value [1] does the source give for “EELAQLAPTPGDAIISLDF [HIF-2α NODD, 19-mer fragment (398–416) of the HIF-2α N-terminal oxygen-dependent degradation domain, PHD2 substrate]” here?
A: The value was 0.013 ± 0.001 s⁻¹.

Q: And the Km [1, 5]?
A: Its Km is 50 ± 8 µM.

Q: What about the Km [1, 6] of the same sequence?
A: Its Km is 17 ± 5 µM.

Q: And the Km (PHD2 [2])?
A: Its Km is 410 ± 80 µM.

Q: And the “substrate hydroxylation after 15 min” value (PHD2 [3])?
A: Its value is 20%.

Q: For “ELDLETLAPYIPMDGEDFQ [HIF-2α CODD, 19-mer fragment (523–541) of the HIF-2α C-terminal oxygen-dependent degradation domain, PHD2 substrate]”, which “kcat^app” value [1] is on record?
A: Its value is 0.069 ± 0.006 s⁻¹.

Q: What about the Km [1, 5] of the same sequence?
A: The Km was 34 ± 10 µM.

Q: What about the Km [1, 6] of the same sequence?
A: Its Km is 9 ± 2 µM.

Q: What about the Km (PHD2 [2]) of the same sequence?
A: The Km was over 450 µM.

Q: What about the “substrate hydroxylation after 15 min” value (PHD2 [3]) of the same sequence?
A: Its value is 90%.

Q: What does the source list for “ESYLLPELTRYDCEVNVPVLGSSTLLQGGDLLRAL [HIF-2α CAD35-mer]”?
A: substrate hydroxylation (time course) (FIH): < 30%; increase in activity on increasing peptide length (19-mer to 35-mer) (FIH; standard conditions, 37 °C): 10%

Q: Which “secondary structure in solution by circular dichroism” value [4] does the source give for “GSHMGSDLGKKLLEAARAGQDDEVRILMANGADVAAKDKNGSTPLHLAARNGHLEVVKLLLEAGADVNAQDKFGKTAFDISIDNGNEDLAEILQ [3CA, recombinant three-consensus ankyrin repeat protein produced in Escherichia coli]” here?
A: Its value is “folded in solution”.

Q: Which results are given for “SDKNGSTPLHLAARNGHLEVVKLLLEHGADVNAQDKWGKTAFDISIDNGNEDLAEILQ [2CA, recombinant two-consensus ankyrin repeat protein produced in Escherichia coli]”?
A: secondary structure in solution by circular dichroism [4]: does not possess significant secondary structure; temperature above which the protein is unfolded (CD) ([4]; thermal denaturation between 10 and 90 °C, sodium phosphate buffer pH 8.0): > 10 °C
